Source: US9029337B2, “Modulation of factor 7 expression” (Isis Pharmaceuticals, Inc., priority 2007, dated 2015)
Strand notation (5' to 3'): a small letter for the sugar, then the base; units joined by * are phosphorothioate-linked, units joined directly phosphodiester-linked; [ ] holds rarer units or linkages, { } end groups; capitals alone tell only the bases. e = 2'-O-(2-methoxyethyl) (MOE); [5mC] = 5-methylcytosine; d = 2'-deoxy (DNA)

Tested on: human Factor 7 mRNA
Assay: Antisense inhibition of human Factor 7 with short (14-mer) oligonucleotides in HepB3 cells, electroporation 1,000 nM
Format: cell-based
Settings: electroporation, 1,000 nM antisense oligonucleotide, approximately 24 hours, Factor 7 mRNA relative to untreated control cells
Excerpt: Short antisense oligonucleotides (shortmers) were designed to target a Factor 7 nucleic acid. The shortmers in Table 17 were designed as 2-10-2 MOE gapmers. The gapmers are 14 nucleotides in length, wherein the central gap segment is comprised of 10 2′-deoxynucleotides and is flanked on both sides (in the 5′ and 3′ directions) by wings comprising 2 nucleotides each. Each nucleotide in the 5′ wing segment and each nucleotide in the 3′ wing segment has a 2′-MOE modification. The internucleoside linkages throughout each gapmer are phosphorothioate (P═S) linkages. All cytidine residues throughout each gapmer are 5-methylcytidines.
Shortmers were evaluated for their ability to reduce human Factor 7 mRNA in HepB3 cells and compared with one 5-10-5 chimeric oligonucleotide from Table 16, ISIS 407939. HepB3 cells at a density of 20,000 cells per well in a 96-well plate were transfected using electroporation with 1,000 nM of antisense oligonucleotide. After a treatment period of approximately 24 hours, RNA was isolated from the cells and Factor 7 mRNA levels were measured by real-time RT-PCR, as described herein. Factor 7 mRNA levels were adjusted according to total RNA content as measured by RIBOGREEN®. Results are presented in Table 17 as percent inhibition of Factor 7 mRNA, relative to untreated control cells. ISIS 407939 is the first oligonucleotide in Table 17 to which the shortmers were compared, and is marked by an asterisk (*).

Substance	% Inhibition [%]
435493 (antisense eG*eA*d[5mC]*d[5mC]*d[5mC]*dT*dG*dG*dT*dG*dT*dA*e[5mC]*eA) [compound 435493]	58
435750 (antisense e[5mC]*eA*d[5mC]*dT*dG*d[5mC]*dA*dG*d[5mC]*d[5mC]*dA*dG*eG*eG) [compound 435750]	14
435850 (antisense e[5mC]*eT*dT*dG*dG*d[5mC]*d[5mC]*dA*dG*dT*dG*dT*eG*eG) [compound 435850]	15
435677 (antisense eG*eT*dG*d[5mC]*dT*d[5mC]*dG*d[5mC]*d[5mC]*d[5mC]*dA*dG*e[5mC]*eA) [compound 435677]	60
435768 (antisense eG*e[5mC]*d[5mC]*dT*dG*dG*dA*dT*dG*d[5mC]*dT*dG*eG*eT) [compound 435768]	75
435836 (antisense e[5mC]*eT*dA*dG*dG*dT*d[5mC]*dT*dG*d[5mC]*dA*dG*eG*eG) [compound 435836]	41
435818 (antisense eG*eT*d[5mC]*dA*dT*d[5mC]*d[5mC]*dT*dT*dG*dT*d[5mC]*eT*eG) [compound 435818]	43
435693 (antisense eG*eG*d[5mC]*dA*dG*dT*d[5mC]*d[5mC]*dT*dG*dG*dG*eT*e[5mC]) [compound 435693]	43
435658 (antisense eT*e[5mC]*dA*d[5mC]*dT*dG*d[5mC]*dA*dG*dT*dA*d[5mC]*eT*eG) [compound 435658]	60
435755 (antisense eG*eG*dG*dA*d[5mC]*dT*d[5mC]*dA*dG*d[5mC]*dA*dA*eG*eA) [compound 435755]	0
435831 (antisense eG*eA*dT*d[5mC]*dT*dT*d[5mC]*dA*d[5mC]*dA*dT*dA*eG*e[5mC]) [compound 435831]	51
435671 (antisense eT*e[5mC]*dA*d[5mC]*d[5mC]*dA*dA*d[5mC]*dA*dA*d[5mC]*dA*eG*eG) [compound 435671]	28
435663 (antisense e[5mC]*e[5mC]*dA*d[5mC]*dA*dT*dG*dG*dA*dT*dA*dT*eT*e[5mC]) [compound 435663]	50
435797 (antisense eA*eA*dT*d[5mC]*dT*dT*dG*dG*d[5mC]*d[5mC]*d[5mC]*d[5mC]*eT*e[5mC]) [compound 435797]	16
435802 (antisense eG*eT*d[5mC]*dA*d[5mC]*d[5mC]*dT*dA*dG*dA*d[5mC]*d[5mC]*eA*eA) [compound 435802]	61
435774 (antisense eG*eT*d[5mC]*d[5mC]*d[5mC]*dA*dG*dG*dG*dA*dA*dG*eG*e[5mC]) [compound 435774]	17
435732 (antisense eG*eA*dA*dA*dA*dG*dT*dG*dA*dG*dA*dG*e[5mC]*eT) [compound 435732]	0
435666 (antisense eG*eG*dT*dT*dT*dG*d[5mC]*dT*dG*dG*d[5mC]*dA*eT*eT) [compound 435666]	71
435480 (antisense eG*eG*dT*d[5mC]*dA*dT*d[5mC]*dA*dG*d[5mC]*d[5mC]*dG*eG*eG) [compound 435480]	53
435694 (antisense e[5mC]*eT*dG*d[5mC]*dA*dG*dG*d[5mC]*dA*dG*dT*d[5mC]*e[5mC]*eT) [compound 435694]	39
435498 (antisense eT*eG*dG*dG*dA*dG*dA*d[5mC]*d[5mC]*d[5mC]*dT*dG*eG*eT) [compound 435498]	37
435719 (antisense e[5mC]*eA*dG*d[5mC]*d[5mC]*dT*dT*dG*dG*d[5mC]*dT*dT*eT*e[5mC]) [compound 435719]	50
435757 (antisense eT*eG*d[5mC]*d[5mC]*dT*dG*dA*dG*dT*dG*d[5mC]*d[5mC]*e[5mC]*e[5mC]) [compound 435757]	51
435727 (antisense eT*eG*dG*dA*dG*dT*d[5mC]*dA*dG*d[5mC]*dA*dT*e[5mC]*eG) [compound 435727]	73
435670 (antisense e[5mC]*eA*dA*d[5mC]*dA*dG*dG*dA*d[5mC]*d[5mC]*dT*dG*e[5mC]*e[5mC]) [compound 435670]	47

Substance	% Inhibition [%]
435647 (antisense eA*eG*dA*dT*dA*dT*dA*dG*dG*dA*d[5mC]*dT*eG*eG) [compound 435647]	0
435779 (antisense eT*eG*dA*dG*d[5mC]*dG*d[5mC]*dG*dG*dA*dA*dG*eA*eA) [compound 435779]	50
435699 (antisense eG*e[5mC]*d[5mC]*d[5mC]*d[5mC]*dA*dG*d[5mC]*dT*dG*dA*d[5mC]*eG*eA) [compound 435699]	48
435485 (antisense eT*e[5mC]*d[5mC]*dT*dG*dG*dG*dT*d[5mC]*dA*dT*d[5mC]*eA*eG) [compound 435485]	34
435643 (antisense e[5mC]*eT*dT*dG*d[5mC]*dA*dG*dG*dA*dG*d[5mC]*d[5mC]*e[5mC]*e[5mC]) [compound 435643]	51
435762 (antisense e[5mC]*eA*dG*dG*dT*dG*dT*dT*dA*dA*dG*dG*eT*eG) [compound 435762]	0
435783 (antisense eA*eA*dA*d[5mC]*d[5mC]*dG*dG*d[5mC]*dA*dT*dG*d[5mC]*eG*e[5mC]) [compound 435783]	49
435678 (antisense eA*eG*dG*dT*d[5mC]*dG*dT*dG*d[5mC]*dT*d[5mC]*dG*e[5mC]*e[5mC]) [compound 435678]	67
435822 (antisense e[5mC]*e[5mC]*dA*dG*dG*dA*dG*d[5mC]*d[5mC]*dT*dT*dT*eA*e[5mC]) [compound 435822]	37
435784 (antisense e[5mC]*e[5mC]*dT*dA*dA*dG*dT*dG*dT*dG*d[5mC]*dT*eT*eT) [compound 435784]	17
435504 (antisense eA*eT*dG*dT*dA*d[5mC]*dT*dG*dG*dG*dA*dG*eA*e[5mC]) [compound 435504]	8
435766 (antisense eG*e[5mC]*dA*d[5mC]*d[5mC]*dT*dG*d[5mC]*dA*dG*d[5mC]*d[5mC]*eA*eG) [compound 435766]	51
435650 (antisense e[5mC]*e[5mC]*dG*dG*d[5mC]*d[5mC]*d[5mC]*dT*d[5mC]*dG*dA*dA*eG*eG) [compound 435650]	6
435481 (antisense eG*eG*dG*dT*d[5mC]*dA*dT*d[5mC]*dA*dG*d[5mC]*d[5mC]*eG*eG) [compound 435481]	50
435829 (antisense eG*eG*dG*dT*dA*dG*dA*d[5mC]*d[5mC]*d[5mC]*dT*d[5mC]*eA*eG) [compound 435829]	18
435646 (antisense eT*eA*dG*dG*dA*d[5mC]*dT*dG*dG*dA*dG*d[5mC]*eT*eG) [compound 435646]	13
435690 (antisense eG*eT*d[5mC]*d[5mC]*dG*dT*dT*d[5mC]*dG*dG*dG*d[5mC]*eA*eG) [compound 435690]	55
435651 (antisense eA*e[5mC]*dA*dG*dT*dT*d[5mC]*d[5mC]*dG*dG*d[5mC]*d[5mC]*e[5mC]*eT) [compound 435651]	71
435695 (antisense eG*eA*d[5mC]*dT*dG*d[5mC]*dT*dG*d[5mC]*dA*dG*dG*e[5mC]*eA) [compound 435695]	48
435816 (antisense eT*e[5mC]*d[5mC]*dA*dA*dA*dG*dG*dA*d[5mC]*dA*dA*eG*eG) [compound 435816]	4
435724 (antisense e[5mC]*eT*dG*dA*dG*dG*d[5mC]*d[5mC]*dA*dG*d[5mC]*dA*eG*eA) [compound 435724]	52
435793 (antisense eT*eG*d[5mC]*dA*dG*dT*dA*dG*d[5mC]*dA*dG*dA*eT*eG) [compound 435793]	27
435817 (antisense e[5mC]*eT*dG*dA*dG*d[5mC]*dT*dT*dG*dG*d[5mC]*dA*e[5mC]*e[5mC]) [compound 435817]	39
435764 (antisense eT*eG*dA*dG*dA*dG*d[5mC]*dT*dG*d[5mC]*dA*d[5mC]*e[5mC]*eT) [compound 435764]	8
435782 (antisense e[5mC]*eG*dT*dG*d[5mC]*dG*d[5mC]*dT*d[5mC]*dA*dG*d[5mC]*eT*e[5mC]) [compound 435782]	36
